This is an account of results in publication PMC12418703, “Avenanthramides and avenacosides as biomarkers of oat intake: a pharmacokinetic study of solid and liquid oat consumption under single and repeated dose conditions” (Nutrition Journal, 2025).

Read-outs that look alike come from different tables or passages of the source.

Data set [1] in a line: Plasma pharmacokinetics after a single dose of liquid or solid oat product (compartmental PK model). The class given is in vivo, humans. As to conditions: for Cmax / half-life / k el / Tmax: both sexes, oral; for Cmax / half-life / k el: human, plasma; for Cmax / half-life / k el / Tmax / T1/2 / ka / V/F / AUC(norm): single dose; for k el: elimination rate (Table 2), read-out: ke (converted); for Tmax: human plasma, derived from PK model; for V, population estimate (RSE%) / ka, population estimate (RSE%) / ke, population estimate (RSE%): Table S1 compartmental model; for ka: absorption rate (Table 2); for V/F: distribution volume over bioavailability; for AUC(norm): normalized for nmol intake. Details: V/F: unit not given here. An excerpt:
A non-blinded, randomized two-way crossover study with two different oat products (solid or liquid) was designed to investigate the AVA and AVE PK after a single dose and after repeated dosing at three different doses, for respective food (Fig. 2). Since this is the first study of its kind, it is impossible to make any formal calculation of the number of subjects needed to show meaningful differences in plasma biomarker concentrations, since the variation is unknown. However, similar studies aimed for BFI discovery and validation of dose-response have typically used 5–30 subjects. We therefore considered 23 individuals as a good compromise between feasibility and possibilities to assess variation in biomarker concentrations, estimate pharmacokinetic parameters, dose response and performing modelling with good precision. A scientist not involved in the study, conducted the randomization using the RAR method (RandomizeR package) in R software environment and provided lists with allocated treatment sequences. The study was conducted in two phases. In the first phase, blood samples were drawn from 11 men and 12 women for 24 h after consumption of a single dose of either a solid or a liquid oat product on-site. Breakfast and lunch were also provided on-site. A single dose of solid (62 g of oat flakes) or liquid (196 mL of oat drink) containing individual AVAs and AVEs shown in Table 1 were consumed, respectively. Blood plasma samples were drawn for 24 h (0 h, 0.25 h, 0.5 h, 0.75 h, 1 h, 1.5 h, 2 h, 3 h, 4 h, 5 h, 6 h, 7 h, 8 h, 24 h). After the 24 h, at the second phase of the study, the corresponding product was further consumed three times per day for four days at either a low, medium, or high intake dose (98, 196 and 392 mL for liquid oats and 31, 62 and 123 g for oat flakes with corresponding contents of AVAs and AVEs (Table 1) in a Latin square design. Therefore, a total number of 8 participants (2 males and 6 females) were randomized to the low dose, 9 participants (3 males and 6 females) for medium dose and 6 participants (3males and 3 females) for the high dose. Participants consumed the provided products at home and were instructed to follow their habitual diets with restriction on the consumption of oat products. A list of relevant foods was provided as a guide. The oat flakes were pre-portioned into individual bags and could be consumed without heating, mixed with yoghurt, cottage cheese, sour milk or any liquid. Participants were instructed to consume the full amount, including the liquid or food the oats were mixed with. Liquid oat products were weighed prior consumption, and they were to be consumed without any additional food. In all cases the time of oat intake was recorded in a food journal. On the fifth day of phase II, a fasting sample was drawn. Fecal samples were collected at baseline and at the end of phase II of the intervention. Between each study period, there was a wash-out period of eight days where participants consumed their habitual diet. After the washout, participants started with a single dose and repeated dosing for the other product in the same way as for the first. The participants were instructed to avoid foods containing oats during the last three days prior to the start of the study and during the last three days of the wash-out period. Compliance was assessed based on information provided in a compliance journal during the study weeks as well as through 2-day food records. The oat products used in the study were provided to the participants. The flakes for the single dose were consumed with water ad lib and for the repeated dose they could be mixed with water, yoghurt, milk, sour milk or cottage cheese with the condition that all the amount of the oat product is consumed. The oat drink was consumed without any other product.
All blood samples were collected into EDTA-coated tubes by a trained nurse. […]

For data set [2], the system named is Feacalibacterium prausnitzii. In words: Association of F. prausnitzii relative abundance at baseline with Cmax and AUC strata (logistic regression). On the set-up: species or system humans. As to conditions: liquid, solid, or combined; single dose phase I. The procedure: DNA was extracted from approximately 35 mg of each of the 451 fecal samples using the NucleoSpin Soil kit (Macherey-Nagel, 740780.250 M), following the manufacturer’s instructions. DNA yield was quantified using the Qubit 1X dsDNA Broad Range assay kit (Thermo Fisher Scientific, Q33266). For metagenomic shotgun sequencing, libraries were prepared with the MGIEasy Fast FS DNA Library Prep Set (MGI Tech Co., Ltd., 940-000030-00, Werheim, Germany), using 400 ng of DNA per sample. The library preparation process included DNA shearing for 12.5 min, followed by end repair, A-tailing, and magnetic bead-based cleanup. Adapter ligation and cleanup were then performed, followed by PCR amplification and magnetic bead-based size selection of the final library product. Library quality was assessed using the Qubit 1X dsDNA HS Assay Kit (Thermo Fisher Scientific, Q33231) and the Agilent High Sensitivity D1000 Assay Kit (Agilent Technologies, 5067–5584 and 5067–5585, Santa Clara, CA, USA). Pooled libraries were circularized, barcoded, and used as templates for DNA nanoball preparation. The nanoballs were then analyzed on the DNBSEQ-T7 platform (MGI Tech Co., Ltd.) using the DNBSEQ-T7RS High-throughput Sequencing Set (FCL PE150), according to the manufacturer’s guidelines.
Raw metagenomic reads underwent quality control to remove low-quality sequences, adapters, and contaminants using Fastp (version 0.23.2, default parameters). High-quality reads were filtered to exclude human reads (GRCh38_noalt_as) using Bowtie2 [38] (version 2.5.3). The quality-filtered reads were then aligned to the taxonomy database using MetaPhlAn (version 4.0.6, default parameters) to generate relative abundance profiles. For inclusion in the analysis, a species was required to be present in at least three samples.
For the seven metabolites AVE A, AVE B, AVA 2c, AVA 2f, AVA 2fd, AVA 2p, AVA 2pd analysed at phase I after the single dose of oat products, Cmax and area under the curve (AUC) were stratified based on less than the median or more or equal to the […]. Thereafter, for each metabolite, it was investigated whether the relative abundance of F. prausnitzii at baseline could predict the strata since this bacterium has previously been reported to be responsible for production of their dihydro-metabolites. Logistic regression with a binomial distribution and a logistic link function was used to separately analyze the liquid and solid products. When analyzing liquid and solid products together, a generalized linear mixed model with a binomial distribution and a logistic link function was used, with identity included as a random factor.

[3] abbreviates: 62 g of oat flakes, solid oat product (62 g oat flakes).
Setting [4] is: 196 mL of oat drink, liquid oat product (196 mL oat drink).

Regarding `COc1cc(/C=C/C=C/C(=O)Nc2ccc(O)cc2C(=O)O)ccc1O` [AVA 2fd], in data set [1] (62 g of oat flakes, solid), the Cmax worked out at 7.34 ± 0.78 nM, the half-life was 1.65 ± 0.13 h and the k el was 0.000117 s⁻¹. Further, in data set [1] (196 mL of oat drink, liquid), the highest level (Cmax) was 2.46 ± 0.25 nM, the half-life is 1.3 h and the k el was 0.000144 s⁻¹. In data set [1] (setting [3]), the Tmax is 1.53 ± 0.07 h. The Tmax in data set [1] (setting [4]) stood at 1.01 ± 0.04 h. In data set [1] (liquid), the “V, population estimate (RSE%)” value is given as 210 (13) L; the “ka, population estimate (RSE%)” value is 3.6 (10) 1/h; the “ke, population estimate (RSE%)” value was 0.52 (14) 1/h; the T1/2 worked out at 1.33 ± 0.10 h. In data set [1] (liquid), the ka is given as 3.6 ± 0.2^1 1/h and the V/F is listed as 211 ± 21^2. Besides, in data set [1] (solid), the “V, population estimate (RSE%)” value was 320 (22) L; the “ka, population estimate (RSE%)” value was 2.2 (10) 1/h; the “ke, population estimate (RSE%)” value is 0.42 (17) 1/h; the ka stood at 2.2 ± 0.12 h⁻¹. In data set [1] (solid), this compound displayed a V/F of 314 ± 32. Further, the “association between F. prausnitzii abundance at baseline and Cmax and AUC” value in data set [2] is “no significant associations”.
`O=C(/C=C/C=C/c1ccc(O)cc1)Nc1ccc(O)cc1C(=O)O` [AVA 2pd]: in data set [1] (62 g of oat flakes, solid), the concentration peaked (Cmax) at 16.8 ± 1.78 nM, the half-life was 2.63 ± 0.2 h and the k el was 7.22e-05 s⁻¹. In addition, in data set [1] (196 mL of oat drink, liquid), the highest level (Cmax) was 3.1 ± 0.31 nM, the half-life is 2.5 h and the k el is 7.78e-05 s⁻¹. The Tmax in data set [1] (setting [3]) came out at 2.31 ± 0.1 h. Further, the time of peak concentration (Tmax) in data set [1] (setting [4]) was determined as 1.6 ± 0.07 h. For the same compound, in data set [1] (liquid), the “V, population estimate (RSE%)” value is recorded as 130 (16) L; the “ka, population estimate (RSE%)” value was 2.4 (9) 1/h; the “ke, population estimate (RSE%)” value is on record as 0.30 (13) 1/h; the T1/2 came out at 2.45 ± 0.19 h. Further, in data set [1] (liquid), the ka is 2.40 ± 0.1^1 1/h and the V/F is 131 ± 13^2. In data set [1] (solid), the “V, population estimate (RSE%)” value is on record as 190 (22) L; the “ka, population estimate (RSE%)” value is on record as 1.5 (10) 1/h; the “ke, population estimate (RSE%)” value is 0.27 (17) 1/h; the ka came to 1.48 ± 0.10 h⁻¹. Besides, in data set [1] (solid), the V/F stood at 189 ± 19. For the same compound, the “association between F. prausnitzii abundance at baseline and Cmax and AUC” value in data set [2] was “no significant associations”.
As for `CC1OC(OC2C(OC3CCC4(C)C(=CCC5C4CCC4(C)C5CC5OC6(CCC(C)(COC7OC(CO)C(O)C(O)C7O)O6)C(C)C54)C3)OC(CO)C(OC3OC(CO)C(O)C(O)C3O)C2O)C(O)C(O)C1O` (centres unmarked) [AVE A, Avenacoside A], in data set [1] (62 g of oat flakes, solid), the Cmax was 2.03 ± 0.22 nM, the half-life was 3.32 ± 0.26 h and the k el is 5.83e-05 s⁻¹. In data set [1] (196 mL of oat drink, liquid), the Cmax was determined as 1.31 ± 0.14 nM, the half-life was 3.2 h and the k el was 6.39e-05 s⁻¹. Besides, the time of peak concentration (Tmax) in data set [1] (setting [3]) is 1.78 ± 0.08 h. In data set [1] (setting [4]), the Tmax turned out to be 2.51 ± 0.11 h. For the same compound, in data set [1] (liquid), the “V, population estimate (RSE%)” value is 5900 (3) L; the “ka, population estimate (RSE%)” value was 1.4 (3) 1/h; the “ke, population estimate (RSE%)” value is on record as 0.21 (10) 1/h; the T1/2 worked out at 3.17 ± 0.24 h. For the same compound, in data set [1] (liquid), the ka is reported as 1.4 ± 0.1^1 1/h and the V/F is recorded as 6718 ± 686^2. In data set [1] (solid), the “V, population estimate (RSE%)” value is given as 9700 (2) L; the “ka, population estimate (RSE%)” value is on record as 2.7 (8) 1/h; the “ke, population estimate (RSE%)” value is given as 0.22 (6) 1/h; the ka was 2.3 ± 0.13 h⁻¹. Besides, the V/F in data set [1] (solid) is reported as 11,055 ± 1130.
For the compound `CC1OC(OC2C(OC3CCC4(C)C(=CCC5C4CCC4(C)C5CC5OC6(CCC(C)(COC7OC(CO)C(O)C(O)C7O)O6)C(C)C54)C3)OC(CO)C(OC3OC(CO)C(O)C(OC4OC(CO)C(O)C(O)C4O)C3O)C2O)C(O)C(O)C1O` (centres unmarked) [AVE B, Avenacoside B], in data set [1] (62 g of oat flakes, solid), the peak level (Cmax) was 0.64 ± 0.07 nM, the half-life is 3.76 ± 0.29 h and the k el was 5e-05 s⁻¹. For the same compound, in data set [1] (196 mL of oat drink, liquid), the Cmax was 0.44 ± 0.05 nM, the half-life is 2.5 h and the k el is 7.5e-05 s⁻¹. The Tmax in data set [1] (setting [3]) was determined as 3.29 ± 0.14 h. In addition, in data set [1] (setting [4]), the time to peak (Tmax) stood at 2.98 ± 0.13 h. In data set [1] (liquid), the “V, population estimate (RSE%)” value is listed as 2200 (3) L; the “ka, population estimate (RSE%)” value is recorded as 0.41 (9) 1/h; the “ke, population estimate (RSE%)” value is reported as 0.27 (3) 1/h; the T1/2 is given as 2.56 ± 0.20^2 h. In data set [1] (liquid), the ka worked out at 0.41 ± 0.02 h⁻¹, the V/F was determined as 2079 ± 212 and the “AUC(norm)” value amounted to 1.8 ± 0.2 nM·h. Also, in data set [1] (solid), the “V, population estimate (RSE%)” value is listed as 2600 (21) L; the “ka, population estimate (RSE%)” value is listed as 0.45 (22) 1/h; the “ke, population estimate (RSE%)” value was 0.19 (20) 1/h; the ka was found to be 0.46 ± 0.03 h⁻¹. Moreover, in data set [1] (solid), the V/F is recorded as 2606 ± 266 and the “AUC(norm)” value amounted to 2.1 ± 0.3 nM·h.
